ChEMBL document CHEMBL1949619, “Synthesis of potent oxindole CDK2 inhibitors” (Bioorg Med Chem, 2003)

Key:
[1] = molecular target: Cyclin-dependent kinase 2/cyclin E1 (Homo sapiens, UniProt P24941); assay: Inhibition of human CDK2/CyclinE expressed in baculovirus insect cell system using Rb as substrate after 30 mins by scintillation counting
RKO = assay: Antiproliferative activity against human RKO cells after 5 days by MTT assay; format: functional, cell-based; settings: 120 h
MDA-MB-435 = assay: Antiproliferative activity against human MDA-MB-435 cells after 5 days by MTT assay; format: functional, cell-based; settings: MDA-MB-435, 120 h
[2] = Cell cycle arrest in human 1043SK cells assessed as accumulation at G1 phase measuring reduction of BrdU incorporation of into cellular DNA by ELISA; format: functional, cell-based

Question: With COc1cc[nH]c1/C=C1\C(=O)Nc2ccccc21 as the compound, how does the IC50 [1] read?
Answer: Its IC50 is 5360 nM.

Question: Which IC50 (RKO) does the source give for COc1cc[nH]c1/C=C1\C(=O)Nc2ccc(F)cc21 here?
Answer: The IC50 was 11900 nM.

Question: And the IC50 (MDA-MB-435)?
Answer: The IC50 was greater than 30000 nM.

Question: What about the IC50 [1] of the same compound?
Answer: Its IC50 is 847 nM.

Question: Which IC50 (RKO) does the source give for COc1ccc2c(c1)/C(=C/c1[nH]ccc1OC)C(=O)N2 here?
Answer: The IC50 was 3860 nM.

Question: What about the IC50 (MDA-MB-435) of the same compound?
Answer: Its IC50 is 8080 nM.

Question: And the IC50 [1]?
Answer: Its IC50 is 209 nM.

Question: Which results are given for COc1cc[nH]c1/C=C1\C(=O)Nc2ccc([N+](=O)[O-])cc21?
Answer: IC50 (RKO): 692 nM; IC50 (MDA-MB-435): 7460 nM; IC50 [1]: 39 nM

Question: With COc1cc[nH]c1/C=C1\C(=O)Nc2ccc([N+](=O)[O-])c(-n3ccnc3)c21 as the compound, how does the IC50 (RKO) read?
Answer: Its IC50 is 3920 nM.

Question: And the IC50 (MDA-MB-435)?
Answer: Its IC50 is greater than 30000 nM.

Question: What about the IC50 [1] of the same compound?
Answer: The IC50 was 1750 nM.

Question: For COc1cc[nH]c1/C=C1\C(=O)Nc2ccc([N+](=O)[O-])c(N3CCNC(C(N)=O)C3)c21 (centres undefined), which IC50 (RKO) is on record?
Answer: Its IC50 is 449 nM.

Question: And the IC50 (MDA-MB-435)?
Answer: Its IC50 is 1270 nM.

Question: And the IC50 [1]?
Answer: Its IC50 is 28 nM.

Question: With COc1cc[nH]c1/C=C1\C(=O)Nc2ccc([N+](=O)[O-])c(N3CCCC(C(N)=O)C3)c21 (centres undefined) as the compound, how does the IC50 (RKO) read?
Answer: The IC50 was 192 nM.

Question: And the IC50 (MDA-MB-435)?
Answer: Its IC50 is 623 nM.

Question: What about the IC50 [1] of the same compound?
Answer: Its IC50 is 6 nM.

Question: For COc1cc[nH]c1/C=C1\C(=O)Nc2ccc([N+](=O)[O-])c(N3CC[C@H](C(N)=O)C3)c21, which IC50 (RKO) is on record?
Answer: Its IC50 is 50 nM.

Question: And the IC50 (MDA-MB-435)?
Answer: Its IC50 is 163 nM.

Question: And the IC50 [1]?
Answer: Its IC50 is 5 nM.

Question: Which results are given for COc1cc[nH]c1/C=C1\C(=O)Nc2ccc([N+](=O)[O-])c(N3CC[C@@H](O)C3)c21?
Answer: IC50 (RKO): 32 nM; IC50 (MDA-MB-435): 88 nM; IC50 [2]: 830 nM; IC50 [1]: 3 nM

Question: What does the source list for COc1cc[nH]c1/C=C1\C(=O)Nc2ccc([N+](=O)[O-])c(N3CC[C@H](O)C3)c21?
Answer: IC50 (RKO): 37 nM; IC50 (MDA-MB-435): 104 nM; IC50 [1]: 5 nM

Question: For COc1cc[nH]c1/C=C1\C(=O)Nc2ccc([N+](=O)[O-])c(N3CCCC(O)C3)c21 (centres undefined), which IC50 (RKO) is on record?
Answer: The IC50 was 105 nM.

Question: What about the IC50 (MDA-MB-435) of the same compound?
Answer: Its IC50 is 250 nM.

Question: What about the IC50 [1] of the same compound?
Answer: Its IC50 is 2 nM.

Question: What does the source list for COc1cc[nH]c1/C=C1\C(=O)Nc2ccc([N+](=O)[O-])c(N3CCC(O)CC3)c21?
Answer: IC50 (RKO): < 10 nM; IC50 (MDA-MB-435): 46 nM; IC50 [1]: 4 nM

Question: Which results are given for COc1cc[nH]c1/C=C1\C(=O)Nc2ccc([N+](=O)[O-])c(N3CCCC(CO)C3)c21 (centres undefined)?
Answer: IC50 (RKO): 124 nM; IC50 (MDA-MB-435): 441 nM; IC50 [1]: 2 nM

Question: Which results are given for COc1cc[nH]c1/C=C1\C(=O)Nc2ccc([N+](=O)[O-])c(N[C@H]3CC[C@H](O)CC3)c21?
Answer: IC50 (RKO): 8040 nM; IC50 (MDA-MB-435): 8550 nM; IC50 [1]: 6 nM

Question: Which IC50 (RKO) does the source give for COc1cc[nH]c1/C=C1\C(=O)Nc2ccc([N+](=O)[O-])c(NC3CCNCC3)c21 here?
Answer: Its IC50 is 24 nM.

Question: What about the IC50 (MDA-MB-435) of the same compound?
Answer: The IC50 was 139 nM.

Question: What about the IC50 [1] of the same compound?
Answer: The IC50 was 5 nM.

Question: For COc1cc[nH]c1/C=C1\C(=O)Nc2ccc([N+](=O)[O-])c(N3CCC(N)CC3)c21, which IC50 (RKO) is on record?
Answer: The IC50 was less than 10 nM.

Question: What about the IC50 (MDA-MB-435) of the same compound?
Answer: The IC50 was less than 10 nM.

Question: What about the IC50 [1] of the same compound?
Answer: Its IC50 is 5 nM.

Question: With COc1cc[nH]c1/C=C1\C(=O)Nc2ccc([N+](=O)[O-])c(N3CC[C@@H](N)C3)c21 as the compound, how does the IC50 (RKO) read?
Answer: Its IC50 is less than 10 nM.

Question: And the IC50 (MDA-MB-435)?
Answer: Its IC50 is less than 10 nM.

Question: And the IC50 [1]?
Answer: The IC50 was 3 nM.

Question: For COc1cc[nH]c1/C=C1\C(=O)Nc2ccc([N+](=O)[O-])c(N3CC[C@@H](NC=O)C3)c21, which IC50 (RKO) is on record?
Answer: Its IC50 is 32 nM.

Question: What about the IC50 (MDA-MB-435) of the same compound?
Answer: The IC50 was 33 nM.

Question: What about the IC50 [1] of the same compound?
Answer: The IC50 was 3 nM.

Question: Which results are given for COc1cc[nH]c1/C=C1\C(=O)Nc2ccc([N+](=O)[O-])c(N[C@H]3CC[C@H](N)C3)c21 (racemic)?
Answer: IC50 (RKO): < 15 nM; IC50 (MDA-MB-435): 61 nM; IC50 [1]: 5 nM

Question: For COc1cc[nH]c1/C=C1\C(=O)Nc2ccc([N+](=O)[O-])c(N[C@H]3CC[C@H](O)C3)c21 (racemic), which IC50 (RKO) is on record?
Answer: Its IC50 is 339 nM.

Question: And the IC50 (MDA-MB-435)?
Answer: Its IC50 is 1000 nM.

Question: What about the IC50 [1] of the same compound?
Answer: Its IC50 is 5 nM.
